The values below come from US20090239894A1, “Stabilized aqueous solutions of ergoline compounds” (priority 2008, published 2009).

The structures appear in SMILES notation.

The conditions of data set [1]: cited from earlier work.
Data set [2] is described as follows: Solubility in water / phosphate-buffered solution (pH 7.4).

Consider `CC(O)CO` (stereo not shown) [propylene glycol, 1,2-propanediol (propylene glycol)], for which the “estimated amount acceptable as a daily oral dose” value in data set [1] was 25 mg/kg body weight. In the case of `CCN(CC)C(=O)N[C@H]1C=C2c3cccc4[nH]cc(c34)C[C@H]2N(C)C1` [lisuride], in data set [2] (free lisuride, calculated from solubility data of active ingredients/salts (Zimmermann 1983)), the “solubility (estimated)” value is on record as ~2.2 mg/100 mL.

For the compound `CCCN1C[C@@H](NC(=O)N(CC)CC)C[C@@H]2c3cccc4[nH]cc(c34)C[C@H]21` [proterguride], in data set [2] (free compound, phosphate-buffered solution (pH 7.4)), the solubility is listed as 2.6 mg/100 mL. For the same compound, in data set [2] (water), the “solubility in water relative to lisuride” value was “comparable to that of lisuride”.
